Four compounds from publication PMC9656787, “Design, Synthesis and Biological Evaluation of Novel 1,3,5-Triazines: Effect of Aromatic Ring Decoration on Affinity to 5-HT7 Receptor” (International Journal of Molecular Sciences, 2022) can be followed below.

Data set [1] is described as follows: Metabolic stability in mouse liver microsomes (MLMs), UHPLC-MS. The note with it: for Metabolic Pathway: metabolites M1, M2 ... in order, after incubation with MLMs; for remaining at 2 h: mouse, liver microsomes; for remaining at 2 h / % Remaining: original compound remaining after 2 h (120 min) incubation with MLMs. In kind it is in vitro ADME. The protocol: It seems, however, that substituents at the B ring of the ligands have a more important role. […] The data correspond to our previous results, in which substituents at the B ring increased metabolic stability. Potential sites in the molecules sensitive to enzyme activity and leading to degradation were proposed using an in silico approach, also with MetaSite 6.0.1 (Figure 7).
(§1) All assays were performed according to the protocols described previously.

A short description of data set [2]: Hepatotoxicity: HepG2 cell line viability. In kind it is cell-based. The note with it: human, HepG2 cells; HepG2, 50 µM, 72 h incubation. The protocol:
(§2) The tested compounds 2 and 12 were evaluated in terms of cytotoxicity against the HepG2 cell line to assess their hepatotoxic potential (Figure 9). […].
as §1
(§3) Figure 9 The effect of cytostatic drug doxorubicin and 2 (left), 12 (right) on hepatoma HepG2 cell line viability after 72 h of incubation at 37°, 5% CO2. The statistical significance (GraphPad Prism 8.0.1) was evaluated by a one–way ANOVA, followed by Bonferroni’s Comparison Test (* p < 0.05, ** p < 0.01, and **** p < 0.0001 compared with negative control DMSO 1% in growth media.

A further data set has as its system HepG2 cell line. The data set can be described thus: Hepatotoxicity: HepG2 cell line viability. In kind it is cell-based. The following applies: 72 h incubation; for cell viability (in words): HepG2, 100 µM; for effect on HepG2 cells at lower concentrations (in words): HepG2, <10 µM. The protocol:
as §2, §1, §3

The target of a further data set is CYP3A4 (Homo sapiens, UniProt P08684). The data set can be described thus: CYP3A4 activity (drug-drug interaction) assay. The note with it: for inhibition activity toward CYP3A4 (in words): compound at 1 µM (concentration of ketoconazole) or lower; for %CYP3A4 activity: negative control = 100%. In kind it is in vitro ADME. The protocol: Potential drug–drug interactions (DDIs) are an important aspect that should be considered when designing new compounds. Isoenzyme CYP3A4 is one of the varieties of enzymes responsible for xenobiotic metabolism. We evaluated active compounds 2 and 12 in terms of affinity toward this isoenzyme (Figure 8).
Chain of CYP3A4 (P08684 whole entry): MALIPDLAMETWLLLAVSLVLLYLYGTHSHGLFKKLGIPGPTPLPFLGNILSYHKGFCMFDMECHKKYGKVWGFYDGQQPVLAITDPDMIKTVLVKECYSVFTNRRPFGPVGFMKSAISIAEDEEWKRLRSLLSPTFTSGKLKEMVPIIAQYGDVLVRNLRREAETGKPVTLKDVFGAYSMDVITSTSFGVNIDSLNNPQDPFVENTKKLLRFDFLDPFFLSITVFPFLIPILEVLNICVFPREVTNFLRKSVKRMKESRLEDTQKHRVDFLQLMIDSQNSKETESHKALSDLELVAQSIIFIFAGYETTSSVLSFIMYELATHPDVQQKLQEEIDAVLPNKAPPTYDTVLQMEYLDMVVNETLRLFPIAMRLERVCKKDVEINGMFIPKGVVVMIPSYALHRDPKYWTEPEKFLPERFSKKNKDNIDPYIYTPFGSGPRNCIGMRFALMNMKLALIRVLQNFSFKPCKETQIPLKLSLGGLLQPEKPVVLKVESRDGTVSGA
as §1
Figure 8 The influence of 2 (left), 12 (right), and ketoconazole (KE) on CYP3A4 activity. Statistical significance (** p < 0.01, **** p < 0.0001) was analyzed by Graph Pad Prism 8.0.1 software using One-way ANOVA and Bonferroni’s Multiple Comparison Post Test in comparison with the negative control (100% of CYP3A4 activity). The compounds were examined in triplicate.

Data set [3] relates to Danio rerio. Nature of the data set: In vivo cardiotoxicity (heart rate, malformations) in zebrafish embryos. The note with it: 96 h. The protocol:
(§4) The compounds were evaluated for their ecotoxicity on the Danio rerio experimental model. OECD 236 test with modifications was applied. Both compounds were found cardiotoxic within the non-toxic range, based on the heart rate measurement. For the compound 2, 5 µg/mL was found cardiotoxic (Figure 10) and for 12, 7.5 µg/mL (Figure 11). The results were confirmed by malformations observation. […] Moreover, scoliosis (S) and tail autophagy (TA) were also noted.
To determine the toxicity of the compounds, the fish embryo toxicity (FET) test was performed on zebrafish (Danio rerio) according to OECD Test Guideline 236. The collected embryos were transferred to a Petri dish with E3 medium (5 mM NaCl, 0.33 mM MgCl2, 0.33 mM CaCl2, 0.17 mM KCl; pH 7.2) and then placed in 6-well plates, 10 embryos per well. Stock solutions 2 and 12 were prepared in DMSO. In these experiments, the range of different concentrations of the solutions was prepared by dissolving stock solutions in the E3 medium each time directly before addition to the wells. The solutions were changed once daily, and the embryos were maintained in the incubator at 28.5 °C. At the end of the exposure period (96 hpf–hours postfertilization), acute toxicity was determined based on a positive outcome in any of the four visual indicators of lethality, including the coagulation of fertilized eggs, lack of somite formation, lack of detachment of the tailbud from the yolk sac and lack of heartbeat. The value of LD50 was calculated. Heartbeats were recorded to observe cardiotoxic effects. Moreover, images of the fish from each group were taken at the final time point to monitor the occurrence of developmental malformations. For the observations, a Discovery V8 Stereo optical microscope and Zeiss hardware were used. A dose-response curve was generated using Prism 8.0.1 (GraphPad Software) by fitting a sigmoid curve model to experimental data points. The concentrations of the compounds of interest causing 50% mortality (LD50) of 96 hpf larvae of Danio rerio were calculated.

The target of another data set is T1, 5-HT6 receptor (Homo sapiens, UniProt P50406).
T1 construct: host or cells: cell membranes from cultured cells
T1 sequence (P50406 whole entry): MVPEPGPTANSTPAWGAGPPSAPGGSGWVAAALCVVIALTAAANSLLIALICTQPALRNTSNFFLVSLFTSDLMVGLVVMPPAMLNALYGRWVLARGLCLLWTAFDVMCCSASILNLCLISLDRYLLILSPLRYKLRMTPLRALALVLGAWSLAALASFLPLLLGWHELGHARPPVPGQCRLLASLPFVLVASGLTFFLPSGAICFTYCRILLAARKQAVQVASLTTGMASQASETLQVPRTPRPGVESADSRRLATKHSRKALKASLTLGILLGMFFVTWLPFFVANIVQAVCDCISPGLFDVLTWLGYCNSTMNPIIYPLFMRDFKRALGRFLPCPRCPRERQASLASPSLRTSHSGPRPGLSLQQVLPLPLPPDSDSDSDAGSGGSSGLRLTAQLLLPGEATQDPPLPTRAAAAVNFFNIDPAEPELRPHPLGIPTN
The data set can be described thus: Radioligand binding assay, 5-HT6 receptor. The note with it: mean ± SD, triplicate at 7 concentrations, Cheng-Prusoff; read-out: Affinity Ki 5-HT6R. The protocol:
(§5) The affinity of the studied compounds to 5-HT1A, 5-HT2A, 5-HT6, 5-HT7, and D2 receptors was evaluated by a radioligand assay, as reported previously (Table 1). Each compound was tested in triplicate at seven concentrations (from 0.1 nM to 100 µM). Inhibition constants (Ki) were calculated from the Cheng–Prusoff equation [23].
(§6) The cell culture, cell membranes, and radioligand binding assays were performed in accordance with standard protocols.

A further data set deals with T2, 5-HT2A receptor (Homo sapiens, UniProt P28223).
T2 construct: host or cells: cell membranes from cultured cells
T2 sequence (P28223 whole entry): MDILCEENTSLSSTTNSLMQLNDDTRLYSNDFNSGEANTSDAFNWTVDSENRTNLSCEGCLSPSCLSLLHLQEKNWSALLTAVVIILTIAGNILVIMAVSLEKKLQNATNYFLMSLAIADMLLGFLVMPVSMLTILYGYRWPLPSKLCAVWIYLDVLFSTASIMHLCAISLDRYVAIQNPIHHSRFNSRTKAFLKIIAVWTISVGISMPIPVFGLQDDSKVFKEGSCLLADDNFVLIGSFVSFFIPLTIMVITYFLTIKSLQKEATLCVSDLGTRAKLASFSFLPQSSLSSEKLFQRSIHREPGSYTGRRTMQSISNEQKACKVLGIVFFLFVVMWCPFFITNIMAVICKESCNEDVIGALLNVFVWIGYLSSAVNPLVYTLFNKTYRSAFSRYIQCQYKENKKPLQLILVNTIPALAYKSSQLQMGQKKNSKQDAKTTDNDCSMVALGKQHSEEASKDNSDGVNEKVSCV
The data set can be described thus: Radioligand binding assay, 5-HT2A receptor. The following applies: mean ± SD, triplicate at 7 concentrations, Cheng-Prusoff; read-out: Affinity Ki 5-HT2AR. The protocol:
as §5, §6

A further data set has as its target T3, 5-HT1A receptor (Homo sapiens, UniProt P08908).
T3 construct: host or cells: cell membranes from cultured cells
T3 sequence (P08908 1-422): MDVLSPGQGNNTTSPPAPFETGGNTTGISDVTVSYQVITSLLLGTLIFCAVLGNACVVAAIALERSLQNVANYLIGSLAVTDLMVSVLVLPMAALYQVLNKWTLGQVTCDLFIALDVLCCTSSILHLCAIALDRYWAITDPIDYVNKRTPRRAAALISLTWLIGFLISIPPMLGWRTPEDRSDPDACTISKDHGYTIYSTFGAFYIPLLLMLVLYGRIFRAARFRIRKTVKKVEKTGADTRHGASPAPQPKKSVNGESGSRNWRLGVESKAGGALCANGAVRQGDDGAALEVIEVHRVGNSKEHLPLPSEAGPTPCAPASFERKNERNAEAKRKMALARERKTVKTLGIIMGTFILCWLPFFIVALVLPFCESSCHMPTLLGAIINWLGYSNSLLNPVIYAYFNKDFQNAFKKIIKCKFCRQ
Nature of the data set: Radioligand binding assay, 5-HT1A receptor. The following applies: mean ± SD, triplicate at 7 concentrations, Cheng-Prusoff; read-out: Affinity Ki 5-HT1AR. The protocol:
as §5, §6

For another data set, the target named is T4, 5-HT7 receptor (Homo sapiens, UniProt P34969).
T4 construct: host or cells: cell membranes from cultured cells
T4 sequence (P34969 1-432 limits assumed): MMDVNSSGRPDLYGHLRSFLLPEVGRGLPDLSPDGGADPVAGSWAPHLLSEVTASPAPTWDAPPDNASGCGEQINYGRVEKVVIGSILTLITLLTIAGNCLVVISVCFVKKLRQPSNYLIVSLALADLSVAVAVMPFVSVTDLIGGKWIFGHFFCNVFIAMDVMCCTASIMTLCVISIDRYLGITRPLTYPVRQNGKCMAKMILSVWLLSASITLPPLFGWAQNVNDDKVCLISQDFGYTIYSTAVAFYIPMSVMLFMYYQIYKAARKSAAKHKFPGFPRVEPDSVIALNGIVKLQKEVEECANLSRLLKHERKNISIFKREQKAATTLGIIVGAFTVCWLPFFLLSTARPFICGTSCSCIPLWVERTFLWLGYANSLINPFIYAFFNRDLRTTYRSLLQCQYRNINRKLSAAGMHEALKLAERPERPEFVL
The data set can be described thus: Radioligand binding assay, 5-HT7 receptor. The note with it: for Ki: mean ± SD, triplicate at 7 concentrations, Cheng-Prusoff, read-out: Affinity Ki 5-HT7R; for activity with respect to 5-HT7R (in words): SAR discussion of radioligand data. The protocol:
as §5, §6

The subject of data set [4] is Danio rerio. The data set can be described thus: Fish embryo toxicity (FET) test, OECD 236, mortality. In kind it is in vivo. The note with it: 96 hpf larvae, 96 h incubation at 28 °C. The protocol: as §4
To determine the toxicity of the compounds, the fish embryo toxicity (FET) test was performed on zebrafish (Danio rerio) according to OECD Test Guideline 236. The collected embryos were transferred to a Petri dish with E3 medium (5 mM NaCl, 0.33 mM MgCl2, 0.33 mM CaCl2, 0.17 mM KCl; pH 7.2) and then placed in 6-well plates, 10 embryos per well. Stock solutions 2 and 12 were prepared in DMSO. […] At the end of the exposure period (96 hpf–hours postfertilization), acute toxicity was determined based on a positive outcome in any of the four visual indicators of lethality, including the coagulation of fertilized eggs, lack of somite formation, lack of detachment of the tailbud from the yolk sac and lack of heartbeat. The value of LD50 was calculated. Heartbeats were recorded to observe cardiotoxic effects. […]

The next data set addresses T5, D2 receptor (Homo sapiens, UniProt P14416).
T5 construct: host or cells: cell membranes from cultured cells
The data set can be described thus: Radioligand binding assay, D2 receptor. The following applies: mean ± SD, triplicate at 7 concentrations, Cheng-Prusoff; read-out: Affinity Ki D2R. The protocol:
as §5, §6

T5 sequence (P14416 whole entry): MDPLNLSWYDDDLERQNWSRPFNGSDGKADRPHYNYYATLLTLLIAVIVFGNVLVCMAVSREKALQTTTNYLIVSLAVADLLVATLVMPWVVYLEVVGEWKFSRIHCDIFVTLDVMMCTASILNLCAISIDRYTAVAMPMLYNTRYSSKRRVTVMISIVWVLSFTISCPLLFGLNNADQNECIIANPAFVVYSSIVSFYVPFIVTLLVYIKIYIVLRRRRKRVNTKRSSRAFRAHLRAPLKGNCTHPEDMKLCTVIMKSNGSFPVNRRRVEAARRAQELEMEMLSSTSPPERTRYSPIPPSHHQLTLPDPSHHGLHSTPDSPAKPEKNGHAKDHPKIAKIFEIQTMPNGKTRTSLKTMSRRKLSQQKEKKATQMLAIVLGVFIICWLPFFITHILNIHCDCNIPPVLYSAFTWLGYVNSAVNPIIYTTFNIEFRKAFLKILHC

A word on the share remaining: it is the share of the starting amount still present when the sample was taken. A lower share remaining goes with a greater loss. Broadly, the viability is the share of living cells, or the viability signal relative to a control. What is called Ki is the dissociation constant of the complex between target and ligand, obtained from inhibition or displacement. Turning to `Cl.Nc1nc(NCCc2ccccc2)nc(NCCc2c[nH]c3ccc(F)cc23)n1` [Compound 2, N^2-(2-(5-Fluoro-1H-Indol-3-yl)ethyl)-N^4-Phenethyl-1,3,5-Triazine-2,4,6-Triamine Hydrochloride], the “Metabolic Pathway” value in data set [1] is “hydroxylation ketone formation double hydroxylation dehydrogenation dehydrogenation double hydroxylation hydroxylation ketone formation and hydroxylation hydroxylation”. Further, the share remaining at 2 h in data set [1] was 20%. Also, the “% Remaining” value in data set [1] is on record as 19.79%. In [2], this compound yielded a viability at 72 h, 50 µM of 35%. In addition, the “cell viability (in words)” value in the data set with HepG2 cell line is listed as “practically no viable”. For the same compound, the “effect on HepG2 cells at lower concentrations (in words)” value in the data set on HepG2 cell line is given as “proliferative activity”. Further, the “inhibition activity toward CYP3A4 (in words)” value on CYP3A4 is reported as “no or slight inhibition activity”. Moreover, the “%CYP3A4 activity” value was 50% at CYP3A4 (compound at 10 µM) and below 15% on CYP3A4 (compound at 25 µM). Moreover, the “concentration at which pericardial edema (PE) was observed” value with Danio rerio [3] stood at 5000 ng/mL. The “concentration found cardiotoxic (heart rate measurement)” value in the data set with Danio rerio [3] turned out to be 5000 ng/mL. Besides, the Ki came to 0.505 ± 0.061 µM on 5-HT6 receptor, 0.413 ± 0.067 µM on 5-HT2A receptor, 13.9 µM at 5-HT1A receptor and 0.008 ± 0.002 µM at 5-HT7 receptor. In addition, the “LD50 (mortality)” value in the data set on Danio rerio [4] turned out to be 4.869 µg/mL.
By melting point is commonly meant the temperature of the solid-liquid transition. In turn, `Cl.Nc1nc(NCCNc2cccc(F)c2)nc(NCCc2c[nH]c3ccccc23)n1` [Compound 11, N^2-(2-(1H-Indol-3-yl)ethyl)-N^4-(2-((3-Fluorophenyl)amino)ethyl)-1,3,5-Triazine-2,4,6-Triamine Hydrochloride] gave a melting point of 74 to 79 °C. The Ki on 5-HT6 receptor was 0.979 ± 0.237 µM. Besides, the Ki on 5-HT2A receptor is 1.28 ± 0.168 µM. The Ki on D2 receptor was found to be 13.8 µM. Moreover, the inhibition constant Ki on 5-HT1A receptor was 34.6 µM. For the same compound, at 5-HT7 receptor, the “activity with respect to 5-HT7R (in words)” value is “active” and the Ki was 0.024 ± 0.005 µM.
For `Cl.Nc1nc(NCCNc2ccc(F)cc2)nc(NCCc2c[nH]c3ccccc23)n1` [Compound 12, N^2-(2-(1H-Indol-3-yl)ethyl)-N^4-(2-((4-Fluorophenyl)amino)ethyl)-1,3,5-Triazine-2,4,6-Triamine Hydrochloride], the “Metabolic Pathway” value in data set [1] is recorded as “decomposition hydroxylation dehydrogenation dehydrogenation double hydroxylation hydroxylation dehydrogenation”. Moreover, the fraction remaining at 2 h in data set [1] came out at 29%. Also, the “% Remaining” value in data set [1] amounted to 29.12%. The viability at 72 h, 50 µM in [2] worked out at 20%. For the same compound, the “cell viability (in words)” value in the data set with HepG2 cell line is given as “practically no viable”. For the same compound, the “effect on HepG2 cells at lower concentrations (in words)” value in the data set on HepG2 cell line was “proliferative activity”. For the same compound, the “inhibition activity toward CYP3A4 (in words)” value on CYP3A4 is recorded as “no or slight inhibition activity”. The entries for the “%CYP3A4 activity” value at CYP3A4 (compound at 10 µM) and at CYP3A4 (compound at 25 µM) were 20% and below 15%, respectively. Besides, in the data set on Danio rerio [3], the “concentration at which pericardial edema (PE) was observed” value was found to be 7500 ng/mL. For the same compound, the “concentration found cardiotoxic (heart rate measurement)” value with Danio rerio [3] came to 7500 ng/mL. Besides, the Ki on 5-HT6 receptor was found to be 1.63 ± 0.301 µM; at 5-HT2A receptor, 3.57 ± 0.491 µM; at D2 receptor it was 3 ± 0.679 µM; on 5-HT1A receptor it was 43.3 µM; at 5-HT7 receptor, 0.018 ± 0.003 µM. The “activity with respect to 5-HT7R (in words)” value on 5-HT7 receptor was “active”. In addition, in the data set on Danio rerio [4], the “LD50 (mortality)” value is 16.95 µg/mL.
`Cl.Nc1nc(NCCc2c[nH]c3ccccc23)nc(Nc2cccc(Cl)c2)n1` [Compound 20, N^2-(2-(1H-Indol-3-yl)ethyl)-N^4-(3-Chlorophenyl)-1,3,5-Triazine-2,4,6-Triamine Hydrochloride] returned a melting point of 174 to 178 °C. In addition, the Ki on 5-HT6 receptor was 2.23 ± 0.528 µM. Also, the inhibitory constant (Ki) on 5-HT2A receptor was 2.69 ± 0.549 µM. Besides, the Ki at D2 receptor turned out to be 2.27 ± 0.153 µM. The Ki on 5-HT1A receptor was 14.1 µM. For the same compound, on 5-HT7 receptor, the “activity with respect to 5-HT7R (in words)” value was “inactive” and the inhibition constant Ki was determined as 1.95 ± 0.261 µM.
